Molecules are shown by their SMILES.

The assay concerns the target T1, 15-hydroxy-prostaglandin dehydrogenase (PGDH) (Homo sapiens, UniProt P15428).
T1 construct: cell-free preparations of human placenta (containing PGDH); from tissue; host or cells: human placenta, cell-free preparation
T1 sequence (P15428 1-266): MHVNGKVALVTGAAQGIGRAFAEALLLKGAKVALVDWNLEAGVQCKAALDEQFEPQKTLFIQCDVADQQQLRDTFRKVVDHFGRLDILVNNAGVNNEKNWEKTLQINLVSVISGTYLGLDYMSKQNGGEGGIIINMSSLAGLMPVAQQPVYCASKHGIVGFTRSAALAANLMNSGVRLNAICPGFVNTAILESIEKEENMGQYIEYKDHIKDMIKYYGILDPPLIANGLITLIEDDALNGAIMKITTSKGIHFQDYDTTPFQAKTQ
The assay is described as follows: Inhibition of 15-Hydroxy Prostaglandin Dehydrogenase (in vitro, cell-free preparations of human placenta, radioactive PGF2 degradation). The settings on record: 50% inhibition of degradation of radioactive PGF2 vs controls without inhibitor. Type of assay: biochemical. The method, then: Radioactive prostaglandin F2 (PGF2 ) is incubated with cell-free preparations of human placenta (containing PGDH) as desribed by Hoult and Moore, Brithish Journal of Pharmacology Vol. 61 (1977), p. 615. After a suitable incubation period the prostaglandins are extracted and separated chromatographically. The amount of unchanged PGF2 is then compared with the amount of metabolites. The inhibitory effect is evaluated by measurement of the effect in the presence of different amounts of added inhibitor and determination of the concentration (IC50 ) at which 50% inhibition of degradation has been obtained as compared to controls run without inhibitor additions. Very good inhibitors are considered to be those that inhibit PGDH by 50% at a concentration of 10 μM or less. Good inhibitors are considered to be those that inhibit at a concentration of between 10 and 100 μM. Also where a compound has to be classified as less good this will often be compensated in actual practice by other valuable properties, such as for instance a low toxicity or particularly suitable pharmacokinetic properties.
The Table below sets forth IC50 values for a number of compounds according to the invention. For comparison the Table also gives the IC50 value of 5-phenylazo-2-hydroxybenzeneacetic acid which is a known effective PGDH inhibitor described in EP,-A-No. 21229.
For `O=C(O)Cc1cc(N=Nc2ccccc2)ccc1O` [5-phenylazo-2-hydroxybenzeneacetic acid, reference compound], the half-maximal inhibitory concentration (IC50) (as a rule, the concentration at which inhibition is half-maximal) came out at 12 µM.
For `O=C(O)Cc1cc(C(=O)c2ccccc2)ccc1O` [Example 1, 5-Benzoyl-2-hydroxy-benzeneacetic acid], the 50% inhibitory concentration (IC50) was 1.4 µM.
The same measure for `Cc1cc(C)cc(C(=O)c2ccc(O)c(CC(=O)O)c2)c1` [Example 3, 5-(3,5-Dimethyl-benzoyl)-2-hydroxy-benzeneacetic acid]: 22 µM; for `O=C(O)Cc1cc(C=Cc2ccccc2)ccc1O` [Example 4, 2-Hydroxy-5-(2-phenyl-1-ethenyl)-benzeneacetic acid]: 20 µM; for `O=C(O)Cc1cc(C(=O)c2ccc(Cl)cc2)ccc1O` [Example 5, 2-Hydroxy-5-(4-chlorobenzoyl)-benzeneacetic acid]: 0.6 µM.
The value for `N#Cc1ccc(C(=O)c2ccc(O)c(CC(=O)O)c2)cc1` [Example 6, 5-(4-Cyanobenzoyl)-2-hydroxy-benzeneacetic acid] was 0.74 µM; that for `O=C(O)Cc1cc(C(=O)c2ccc(C(=O)O)cc2)ccc1O` [Example 7, 2-Hydroxy-5-(4-carboxybenzoyl)-benzeneacetic acid] was 1.3 µM; that for `O=C(O)Cc1cc(C(=O)c2ccccc2)cc(Br)c1O` [Example 9, 5-Benzoyl-3-bromo-2-hydroxy-benzeneacetic acid] was 42 µM.
The value for `O=C(O)Cc1cc(C(=O)c2ccccc2F)ccc1O` [Example 10, 5-(2-Fluorobenzoyl)-2-hydroxy-benzeneacetic acid] was 0.74 µM; that for `O=C(O)Cc1cc(C(=O)c2ccc(Cl)cc2Cl)ccc1O` [Example 11, 5-(2,4-Dichlorobenzoyl)-2-hydroxy-benzeneacetic acid] was 0.21 µM; that for `O=C(O)Cc1cc(C(=O)c2cccc(F)c2)ccc1O` [Example 12, 5-(3-Fluorobenzoyl)-2-hydroxy-benzeneacetic acid] was 1.3 µM.
As for `O=C(O)Cc1cc(C(=O)Cc2ccccc2)ccc1O` [Example 14, 5-(2-Phenylacetyl)-2-hydroxy-benzeneacetic acid], the half-inhibitory concentration (IC50) is 56 µM.
The same measure for `O=C(O)Cc1cc(C(=O)Cc2ccc(C(=O)O)cc2)ccc1O` [Example 15, 2-Hydroxy-5-(2-(4-carboxyphenyl)-acetyl)-benzeneacetic acid]: 1.7 µM.
The value for `O=C(O)Cc1cc(C(=O)C=Cc2ccccc2)ccc1O` [Example 16, 5-(3-Phenyl-1-oxo-2-propenyl)-2-hydroxy-benzeneacetic acid] was 12 µM; that for `O=C(O)Cc1cc(C(=O)C=Cc2ccc(C(=O)O)cc2)ccc1O` [Example 17, 2-Hydroxy-5-(3-(4-carboxyphenyl)-1-oxo-2-propenyl)benzeneacetic acid] was 1.4 µM; that for `O=C(O)Cc1cc(C(=O)c2cccc(C(=O)O)c2)ccc1O` [Example 18, 2-Hydroxy-5-(3-carboxybenzoyl)-benzeneacetic acid] was 6 µM.
The value for `COC(=O)Cc1cc(C(=O)c2ccc(F)cc2)ccc1O` [Example 20, Methyl-5-(4-fluorobenzoyl)-2-hydroxy-benzeneacetate] was 4.9 µM.
For `O=C(O)Cc1cc(C(=O)c2ccc(F)cc2)ccc1O` [Example 21, 5-(4-Fluorobenzoyl)-2-hydroxy-benzeneacetic acid], the IC50 amounted to 0.58 µM.
The same measure for `O=C(O)Cc1cc(C(=O)c2c(F)cccc2F)ccc1O` [Example 25, 5-(2,6-Difluorobenzoyl)-2-hydroxy-benzeneacetic acid]: 0.38 µM; for `CC(C)c1ccc(C=CC(=O)c2ccc(O)c(CC(=O)O)c2)cc1` [Example 29, 5-(3-(4-(1-Methyl-ethyl)-phenyl)-1-oxo-2-propenyl)-2-hydroxy-benzeneacetic acid]: 1.3 µM.
The value for `COc1ccc(C=CC(=O)c2ccc(O)c(CC(=O)O)c2)cc1` [Example 30, 5-(3-(4-Methoxyphenyl)-1-oxo-2-propenyl)-2-hydroxybenzeneacetic acid] was 1.9 µM.
Consider `CC(=O)c1ccc(C(=O)c2ccc(O)c(CC(=O)O)c2)cc1` [Example 32, 5-(4-Acetylbenzoyl)-2-hydroxy-benzeneacetic acid], for which the IC50 stood at 0.63 µM.
As to `O=C(O)Cc1cc(C=Cc2ccc(C(=O)O)cc2)ccc1O` [Example 33, 2-Hydroxy-5-(2-(4-carboxyphenyl)-1-ethenyl)-benzeneacetic acid], the 50% inhibitory concentration (IC50) came out at 0.4 µM.
